The subject of data set [1] is neutral lipids in and on the Bruch's membrane. The experiment in a line: Oil red O staining of neutral lipids in Bruch's membrane, macaque study. The conditions noted are these: eyes injected with L-4F vs eyes injected with placebo; 6 monthly intravitreal injections (total 625 μg); after 6 months. It counts as in vivo, Macaca fascicularis. As to the method: (§1) The macaque study was conducted according to accepted guidelines. […] One eye per animal received 6 monthly injections of the same escalating dosages of L-4F or scrambled L-4F (total of 625 μg) in a 50 μL volume. The second eye per animal was not injected and was just observed.
Clinical laboratory tests including serology, hemograms and liver enzymes were conducted, and ophthalmic examinations were also performed, including fundus photographs, optical coherence tomography (OCT), intraocular pressure testing and blood sampling. After 7 months, all animals were sacrificed and eyes were immediately prepared for histology. Histochemistry was performed with oil red O for neutral lipids and filipin for esterified cholesterol. […]
For staining with oil red O (ORO), specimens were treated with a 0.3% oil red O (Sigma-Aldrich Biochemie GmbH, Hamburg, Germany) solution (in 99% isopropanol) for 30 min at room temperature (RT), followed by immersion in a 60% isopropanol solution for 12 min. […] Image analysis was performed by grading the intensity of ORO staining (red color) of the Bruch's membrane (BrM) with scores ranging from 0 to 4, according to a qualitative evaluation assessed in four different regions in two separate slices from each eye (a total of 8 different regions from each eye). […]

The subject of data set [2] is complement factor D (CFD). Kind of data set: Immunohistochemistry of complement factor D, macaque study. It counts as in vivo, Macaca fascicularis. Particulars: eyes injected with L-4F vs eyes injected with the scrambled peptide; fluorescence intensity. How it is done:
as §1
(§2) Clinical laboratory tests including serology, hemograms and liver enzymes were conducted, and ophthalmic examinations were also performed, including fundus photographs, optical coherence tomography (OCT), intraocular pressure testing and blood sampling. After 7 months, all animals were sacrificed and eyes were immediately prepared for histology. […]
(§3) Assays for immunohistochemistry of the membrane attack complex (MAC, C5b-9) and complement factor D (CFD) were performed identically except for employment of monoclonal antibodies specific for each complement component. […] Fluorescence microscopy was conducted using an inverted fluorescence microscope (DMI 6000 from Leica Microsystems, Wetzlar, Germany) and a filter set for λex/λem=470 nm/525 nm. For the semiquantitative analysis of fluorescence intensity of C5b-9, 3-5 different regions in one slide were analyzed for 3 different slides from each eye (a total of 9-15 different regions from each eye). For the semiquantitative analysis of fluorescence intensity of complement factor D, 3 distinct regions for each eye were evaluated.

The test system of data set [3] is membrane attack complex (MAC, C5b-9). The experiment in a line: Immunohistochemistry of membrane attack complex, macaque study. It counts as in vivo, Macaca fascicularis. The conditions noted are these: eyes injected with L-4F vs eyes injected with the scrambled peptide; fluorescence intensity. As to the method:
as §1, §2, §3

Data set [4] deals with geriatric macaques with naturally occurring age-related maculopathy. Kind of data set: Bruch's membrane thickness by electron microscopy, macaque study. It counts as in vivo, Macaca fascicularis. As to the method: as §1
Lipid deposition in the Bruch's membrane contributes to thickening of the BrM. Bruch's membrane thickness was measured at the temporal outer macula of enucleated eyes examined by electron microscopy post-mortem.

The test system is the same in data set [5]. The experiment in a line: Macaque study: fellow non-injected eye, tolerability and blood hsCRP. It counts as in vivo. As to the method:
as §1
Clinical laboratory tests including serology, hemograms and liver enzymes were conducted, and ophthalmic examinations were also performed, including fundus photographs, optical coherence tomography (OCT), intraocular pressure testing and blood sampling. After 7 months, all animals were sacrificed and eyes were immediately prepared for histology. Histochemistry was performed with oil red O for neutral lipids and filipin for esterified cholesterol. Immunohistochemistry was performed against complement factor D (CFD) and the membrane attack complex (MAC, C5b-9), both being markers of activation of the alternative complement pathway.
Circulating hsCRP, which is mainly produced in the liver, is a non-specific marker for systemic inflammation.

The test system of data set [6] is esterified cholesterol in the Bruch's membrane. The experiment in a line: Filipin staining of esterified cholesterol in Bruch's membrane, macaque study. The conditions noted are these: eyes injected with L-4F vs placebo-injected eyes; 6 monthly intravitreal injections. It counts as in vivo, Macaca fascicularis. As to the method:
as §1, §2
For staining with filipin, specimens were washed once with deionized water for 5 min and then treated with 70% ethanol for 45 min. […] The specimens were then washed sequentially with PBS and deionized water, mounted with a mounting solution (Mowiol®, Carl Roth GmbH, Karlsruhe, Germany), covered with a glass cover slip, and examined using an inverted fluorescence microscope (DMI 6000 from Leica Microsystems, Wetzlar, Germany). Filipin fluorescence was observed using a UV filter set (λex/λem=350 nm/455 nm). […] Semiquantitative analysis of fluorescence intensity of filipin at three separate regions of the BrM was done on three different slides from the same eye (a total of 9 different regions from each eye).

The record followed here is patent US10905770B2, “Topical delivery of therapeutic agents using cell-penetrating peptides for the treatment of age-related macular degeneration and other eye diseases” (priority 2017, dated 2021).

On to Ac-DWFKAFYDKVAEKFKEAF-NH2 [L-4F], for which the “reduction of lipid deposits from the BrM (staining with oil red O)” value in data set [1] was “about 56%”. Besides, the “decreased level of complement factor D” value in data set [2] was “about 41%”. The “decreased level of MAC (C5b-9) in the BrM and the choriocapillaris” value in data set [3] is “about 58%”. The “reduction of BrM thickness” value in data set [4] (eyes injected with L-4F vs eyes injected with placebo) is listed as “about 24%”. For the same substance, the BrM thickness in data set [4] (eyes injected with L-4F, temporal outer macula, electron microscopy post-mortem, ±SE) is reported as 1.31 μm. Moreover, the “blood level of high-sensitivity C-reactive protein (hsCRP)” value in data set [5] (after 6 monthly intravitreal injections vs day prior to first injection) is on record as “did not increase”. In data set [5] (macaques intravitreally injected with L-4F), the “tolerability (adverse events, side effects)” value is “well tolerated”. In addition, the “reduction of esterified cholesterol in the BrM (filipin fluorescence)” value in data set [6] is given as “about 68%”.
